Test results reported in article PMC5128747, “Biscogniauxone, a New Isopyrrolonaphthoquinone Compound from the Fungus Biscogniauxia mediterranea Isolated from Deep-Sea Sediments” (Marine Drugs, 2016).
pIC50: −log10 of the molar value. Converted amounts (≈) assume the structure as drawn. “And” between values parts separate entries of the source, which are not always exact repeats. Equal values may be shown once. Read-outs that look alike come from different tables or passages of the source. Where a SMILES comes first, the peptide text is derived from it.

Legend:
Septoria tritici = test: Antifungal growth inhibition, Septoria tritici; assay type: cell-based; conditions: in the same concentration range (IC50 in the range of 100 μM)
Description: (§1) The antimicrobial activities of compounds 1 and 2 against the bacteria Bacillus subtilis as well as the human pathogenic yeast Candida albicans (DSM 1386) were determined according to Ohlendorf et al.. The bioassays with the clinically relevant bacterial strains Staphylococcus epidermidis (DSM 20044), methicillin-resistant Staphylococcus aureus (MRSA) (DSM 18827), and the causative agent of acne, Propionibacterium acnes (DSM 1897^T), were performed as described by Silber et al.. The phytopathogenic fungus Septoria tritici and the dermatophytic fungus Trichophyton rubrum as well as the cytotoxic effect on the human hepatocellular liver carcinoma cell line HepG2 were tested according to Jansen et al.. Inhibition of the enzymes glycogen synthase kinase (GSK-3β), acetylcholinesterase (AchE), phosphodiesterase (PDE-4B2), and protein tyrosine phosphatase (PTP1B) was determined according to Baki et al., Ohlendorf et al., Schulz et al., and Silber et al., respectively. The concentration of the compounds used in the initial bioassays was 100 μM (antibiotic tests), 50 μM (cytotoxic tests), and 10 μM (enzymatic tests). […]

Trichophyton rubrum = test: Antifungal growth inhibition, Trichophyton rubrum; assay type: cell-based; conditions: in the same concentration range (IC50 in the range of 100 μM)
Description: as §1

[1] = target: T1, glycogen synthase kinase (GSK-3β) (Homo sapiens, UniProt P49841); test: Inhibition of glycogen synthase kinase (GSK-3β); assay type: biochemical; conditions: concentrations 0.1 μM to 50 μM analyzed twice in duplicates
T1 sequence (P49841 whole entry): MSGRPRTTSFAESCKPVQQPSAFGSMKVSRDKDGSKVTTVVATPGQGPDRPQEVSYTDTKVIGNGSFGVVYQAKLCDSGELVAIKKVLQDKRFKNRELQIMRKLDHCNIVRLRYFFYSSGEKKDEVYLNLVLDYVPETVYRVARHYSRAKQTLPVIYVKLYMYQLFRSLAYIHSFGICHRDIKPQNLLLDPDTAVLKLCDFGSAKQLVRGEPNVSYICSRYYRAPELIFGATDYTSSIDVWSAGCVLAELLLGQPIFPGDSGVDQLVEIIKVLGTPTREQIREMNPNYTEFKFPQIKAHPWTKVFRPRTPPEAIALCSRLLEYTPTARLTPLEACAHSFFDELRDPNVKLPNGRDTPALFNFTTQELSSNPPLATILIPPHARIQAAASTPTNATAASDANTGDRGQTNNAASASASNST
Description: (§2) The phytopathogenic fungus Septoria tritici and the dermatophytic fungus Trichophyton rubrum as well as the cytotoxic effect on the human hepatocellular liver carcinoma cell line HepG2 were tested according to Jansen et al.. Inhibition of the enzymes glycogen synthase kinase (GSK-3β), acetylcholinesterase (AchE), phosphodiesterase (PDE-4B2), and protein tyrosine phosphatase (PTP1B) was determined according to Baki et al., Ohlendorf et al., Schulz et al., and Silber et al., respectively. The concentration of the compounds used in the initial bioassays was 100 μM (antibiotic tests), 50 μM (cytotoxic tests), and 10 μM (enzymatic tests).

[2] = system: methicillin-resistant Staphylococcus aureus (MRSA) (DSM 18827); test: Antibacterial growth inhibition, MRSA; assay type: cell-based; conditions: very weak inhibition, in the range of
[3] = system: Staphylococcus epidermidis (DSM 20044); test: Antibacterial growth inhibition, Staphylococcus epidermidis; assay type: cell-based; conditions: DSM20044, very weak inhibition, in the range of
Description: as §1

[4] = target: T1, glycogen synthase kinase (GSK-3β); parameters: method as in PMID 24045329; conditions: read-out: IC50, inhibition of GSK-3β; cited from earlier work
[5] = target: acetylcholinesterase (AchE) (Homo sapiens, UniProt P22303); test: Inhibition of acetylcholinesterase (AchE); assay type: biochemical
Sequence of acetylcholinesterase (AchE) (P22303 32-614): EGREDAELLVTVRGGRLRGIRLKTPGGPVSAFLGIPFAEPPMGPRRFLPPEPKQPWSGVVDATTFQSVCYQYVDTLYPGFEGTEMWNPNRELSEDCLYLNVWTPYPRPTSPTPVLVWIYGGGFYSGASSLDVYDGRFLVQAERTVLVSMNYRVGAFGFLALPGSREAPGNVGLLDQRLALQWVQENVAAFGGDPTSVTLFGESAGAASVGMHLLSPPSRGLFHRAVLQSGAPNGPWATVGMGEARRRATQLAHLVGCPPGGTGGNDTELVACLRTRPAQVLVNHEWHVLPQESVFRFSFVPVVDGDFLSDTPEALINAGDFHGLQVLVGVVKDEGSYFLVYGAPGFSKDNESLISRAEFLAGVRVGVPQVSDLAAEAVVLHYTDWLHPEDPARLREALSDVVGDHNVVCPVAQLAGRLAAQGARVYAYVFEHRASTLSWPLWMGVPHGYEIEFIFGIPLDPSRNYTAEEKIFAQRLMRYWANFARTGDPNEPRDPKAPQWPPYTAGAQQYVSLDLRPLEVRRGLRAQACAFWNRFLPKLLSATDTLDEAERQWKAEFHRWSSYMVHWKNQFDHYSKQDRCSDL
Description: as §2

**Q.** Which results are given for `COc1cc(O)c2c(c1C)C[C@H](C)OC2=O` [Compound 2, 6-methoxy-5-methyl mellein]?
**A.** inhibition of Septoria tritici (Septoria tritici): weakly inhibited; inhibition of Trichophyton rubrum (Trichophyton rubrum): weakly inhibited

**Q.** What does the source list for `O=C1c2c[nH]cc2C(=O)c2c(O)cc(O)cc21` [Compound 1, biscogniauxone]?
**A.** pIC50 [1]: 5.09 and 5.10; pIC50 [2]: ~4.00; pIC50 [3]: ~4.00

**Q.** With bhimamycin H as the compound, how does the pIC50 [4] read?
**A.** 4.74

**Q.** With `CC(C)C[C@@H]1NC(=O)[C@H](CC(C)C)NC(=O)[C@H](C(C)C)NC(=O)[C@H](CC(C)C)NC(=O)[C@H](Cc2ccccc2)NC1=O` [Compound 3, cyclo-(L-Phe-L-Leu-L-Val-L-Leu-L-Leu)] (cyclo(FLVLL)) as the compound, how does the “minimal inhibition concentration (MIC), inhibitory effect on AchE” value [5] read?
**A.** 5.87 µM (≈ 3.44 µg/mL)
